This test concerns the target Autotaxin (Homo sapiens, UniProt Q13822). The test can be described thus: Biochemical Assay: Compound IC50 values are determined in a fluorescent hENPP2 (UniProtKB/SwissProt Sequence ref Q13822) biochemical assay using the fluorogenic autotaxin substrate FS-3 as substrate. FS-3 is a doubly labeled analog of LPC wherein the fluorophore is quenched through intramolecular energy transfer. Without hENPP2, the emission of the probe is quenched. If the substrate is hydrolyzed by hENPP2, the emission of the probe is not quenched anymore resulting in a fluorescence increase. Inhibition of hENPP2 by compounds will result in a decrease of the signal. 10 uL of a dilution series of compound, starting from 20 uM highest concentration, dilution, is added to the wells. hENPP2 is used at a final concentration of 0.4 ug/mL or 0.64 ug/mL (it will be appreciated by the skilled person that the potency read out is independent of the enzyme concentration). The enzyme is diluted in 50 mM Tris-HCl pH 8.0, 250 mM NaCl, 5 mM KCl, 1 mM MgCl2, 1 mM CaCl2, 0.1% fatty acid free BSA in a total volume of 20 uL. Enzyme mixture is added to compounds and the resulting mixture is incubated for 30 min at room temperature under shaking. The reaction is started by the addition of 20 uL of 0.75 uM FS-3 diluted in the same buffer as described above and the mixture is incubated at 30° C. for 30 min. Fluorescence is read on the Envision (Excitation 485 nm, emission 520 nm).

A value given as a limit tells only on which side of the number the result lay.

By IC50 is commonly meant the concentration that gives 50% inhibition. On to `CCc1nc2ccc(N3CCC(NC(=O)C4CCOCC4)CC3)nn2c1N(C)c1nc(-c2ccc(F)cc2)cs1`, for which the IC50 is < 1 µM.
